Source: article PMC4627230, “Identification of TAX2 peptide as a new unpredicted anti-cancer agent” (Oncotarget, 2015)

Tests used:
TSP-1 = test: Microscale thermophoresis; format: binding; conditions: data not shown
HUVECs = test: Boyden chamber / Transwell migration assay; format: cell-based, human
Protocol: Figure 2 TAX2 peptide impairs endothelial cell migration and inhibits angiogenesis in vitro and ex vivo A. HUVECs were treated with TAX2 (100 μM) or scrambled peptide (Ctrl, 100 μM). CD47 was immunoprecipitated from total protein lysates using anti-CD47 (clone B6H12) and non-specific IgGs were used as a negative control. Immunocomplexes were then submitted to SDS-PAGE and immunoblotted (IB) using specific TSP-1 and CD47 antibodies. Histogram represents the quantification of co-immunoprecipitated TSP-1 relative to immunoprecipitated CD47. Results are expressed as percentage compared to control (n = 3 separate experiments, t test). B. HUVECs (1 × 10^5 per well) were grown at confluence and then cell proliferation was inhibited by incubating with 10 μg/mL mitomycin C for 2 h. Migration assays were performed for 9 h with or without TAX2 peptide (100 μM), as described in Materials and Methods. Photographs (100×) were taken every 3 h. Graph represents the quantification of the wounded area. […] Hoechst-stained migrating cells attached on outside surface of the top chamber were photographed (20× objective) and counted. Results are expressed as percentage of migrated cells as compared to control. […] After 8 h incubation, HUVEC tube-like formation was observed on an inverted microscope (40×) and quantification of network total length was done using ImageJ software. […] Data are expressed as the mean ± SE from at least 3 independent experiments, each performed in triplicate. […] The transcriptional level of TSP-1 was assessed by RT-PCR and normalized to β-actin. […] After 6 days incubation in the presence of 100 μM TAX2 or control peptide (Ctrl), images were taken with an inverted microscope (40×) and microvessel area was quantified using ImageJ software. […]
Figure 3 Anti-angiogenic properties of TAX2 are mediated by TSP-1 binding to CD36 A. Expression of CD36 in HUVECs was assessed by immunoblotting (left panel) and immunofluorescence staining (right panel, red). […] The presence of TSP-1 in immunocomplexes was quantified by densitometric analysis relative to immunoprecipitated CD36. […]

[1] = system: tumor vascularization of B16F1 melanoma in C57BL/6 mice; test: B16F1 melanoma tumor angiography (μCT) and CD31 immunostaining; format: in vivo, mouse; conditions: 10 mg/kg i.p. days 3, 5, 7
Protocol: For the subcutaneous melanoma tumor model, suspensions of B16F1 cells (2.5 × 10^5 cells in 100 μL RPMI-1640 medium) were subcutaneously injected into the left flank of different randomized series of syngeneic C57BL/6 mice (n = 8–10 per group), as previously described. Intraperitoneal administrations of peptide (10 mg/kg mouse weight) or controls (physiological serum 0.9% (w/v) NaCl or a scrambled peptide) were performed at days 3, 5 and 7. In human pancreatic carcinoma xenograft experiments, 3 × 10^6 MIA PaCa-2 cells/mouse were implanted subcutaneously into the left flank of BALB/C athymic nude mice, then TAX2 intraperitoneal treatments (10 mg/kg mouse weight) were performed 3 times a week during 4 weeks starting at day 10 after tumor cells inoculation. Tumor volume was determined according to v = 0.5 A × B^2, where A denotes the largest dimension of the tumor and B represents the smallest dimension. At days indicated, mice were sacrificed and tumors were surgically extracted and fixed in 4% paraformaldehyde for further morphologic studies and for magnetic resonance imaging, or frozen for immunohistochemistry. Mice were also weighed every 2–3 days and daily checked for any modification in their behavior. Loss of 15% body weight was an indication for euthanasia as well as severe tumor necrosis, as it was sometimes associated with skin ulceration that would result in loss of body fluid and/or infection.
Histological analysis of formaldehyde-fixed and paraffin-embedded tumors were performed on hemalun, phloxin and saffron (HPS) stained 3 μm thick sections prepared using routine histological methods. To assess tumor-associated microvessel density (MVD), CD31 immunostaining was performed on 5 μm thick cryosections using biotin-labeled secondary antibody and streptavidin-HRP AEC detection system (Microm Microtech, Francheville, France), followed by hematein counter-coloration. Negative controls were done omitting the primary antibody. The necrotic part relative to total tumor surface for each tumor slice as well as MVD were quantified using ImageJ software.
Animals were anesthetized by isoflurane (Forene, Abbott France, Rungis, France) inhalation (3% for induction and 1–1.5% for maintenance) and then after placed in a carbon fibers bed. CT images were acquired on a dedicated small animal μCT scanner (Skyscan 1076, Bruker, Kontich, Belgium) while continuously rotating the camera by 180° with the following parameters: 50 kV, 0.5 mm Al filter, 200 μA source current, 35 μm isotropic resolution, 180 ms exposure time, 4 projection images per 0.7° rotation step and a retrospective synchronization. The projections were reconstructed using a filtered backprojection algorithm using Skyscan software (NRecon, Skyscan). For tumor angiography analysis, an alkaline earth-based nanoparticulate contrast agent (Viscover ExiTron nano 12000, Miltenyi Biotec, Paris, France) was injected in the mouse tail vein. Mice were imaged during the next 30 min following injection, a period during which no reduction in contrast was observed. Analysis of reconstructed images and quantification of the vascular network were performed using Amira 5.4.3 software.

[2] = μCT angiography, representative of n = 5

CEVSQLLKGDAC (disulfide) [TAX2, CD47-derived cyclic disulfide dodecapeptide …]
binding to TSP-1 by microscale thermophoresis (TSP-1): confirmed | inhibition of endothelial cell migration (Boyden chamber) (HUVECs; HUVECs, 100 μM, 12 h, EGM-2, mean of 5 in triplicate): 50% | prevention of endothelial cell migration in presence of CD36 blocking antibody (HUVECs; HUVECs, 100 μM, 12 h, anti-CD36 10 μg/mL, n = 3): wholly reversed | concentration of optimal inhibition of endothelial cell migration (HUVECs; dose-response assay, data not shown, migration format not specified): 100 µM | tumor vasculature appearance in 3D reconstruction, day 14 [1]: highly anarchic and discontinuous, only at the tumor surface, surrounding a central hemorrhagic area | blood vessel size (CD31) ([1]; tumor cryosections, n = 6): diminution in vessel size | diminution in intratumoral MVD (CD31) ([1]; tumor cryosections, n = 6): 60% | blood vessels within tumors, day 7 [1, 2]: undetectable | central vascular network within tumors, day 14 [1, 2]: still lacking and a wide hemorrhagic area corresponding to the previously described necrotic zone was observed | intratumoral vascularization, day 10 [1, 2]: restricted to tumor periphery | length and diameter of tumor blood vessels ([1]; μCT day 14): significantly decreased both the length and diameter of blood vessels | reduction in blood vessel mean volume ([1]; μCT day 14): 2 fold
